According to paper PMC9545147, “Impact of Sulfur Fumigation on Ginger: Chemical and Biological Evidence” (Journal of Agricultural and Food Chemistry, 2022):

What was measured:
[1] = Pharmacokinetics in rats after single oral (intragastric) administration; format: in vivo; conditions: male, Sprague-Dawley, rat, 10 mg/kg, plasma, mean ± SD (n = 6); for CL/F: read-out: Cl/F_obs (apparent total body clearance) (converted); for MRT: read-out: MRT (mean residence time); for half-life: read-out: T1/2 (terminal half-life) (converted); for Vd/F: read-out: Vz/F_obs (apparent volume of distribution)
Protocol: A multiple reaction monitoring (MRM) mass acquisition method using a triple quadrupole (QQQ) mass spectrometer was used to determine compound I and 6-shogaol in rat plasma. Chromatographic separation was performed on an Agilent 1290 UPLC equipped with a binary pump with degasser (G4220A), a thermostatic column compartment (G1316C), and an autosampler (G4226A). […] The mobile phase used for the UPLC consisted of 0.1% formic acid in water (v/v) (A) and 0.1% formic acid in acetonitrile (v/v) (B). The elution gradient procedure started at 15% B, then 0–5 min, 15–75% B; 5–6 min, 75–100% B; 6–9 min, 100% B; 9–12 min, 15% B.
MS data were acquired with an Agilent 6460 QQQ mass spectrometer (G6460) equipped with a JetStream electrospray ion (ESI) source. The MRM parameters were as follows: for 6-gingesulfonic acid, negative mode; fragmentor at 120 V; ion pair m/z 357.1 → 80.9 (15 V), 357.1 → 275.1 (15 V). For 6-shogaol, positive mode; fragmentor at 80 V; ion pair m/z 277.2 → 137.0 (11 V), 277.2 → 259.1 (7 V).
The pharmacokinetic parameters were calculated using the PKSolver 2.0 add-in with a non-compartment model.[11],[12] The time to peak drug concentration (Tmax) means the time when plasma concentrations reached a maximum value (Cmax). The area under the concentration versus time curve from zero to the last sampling time (AUC0–t) and to infinity (AUC0–∞), apparent volume of distribution (Vz/F_obs), terminal half-life (T1/2), mean residence time (MRT), and apparent total body clearance (Cl/F_obs), were calculated under the PKSolver add-in. All the results were presented as the mean ± standard deviation (SD) of six independent experiments.

[2] = MTT cell viability assay, HCT-116; format: cell-based, human; conditions: human, HCT-116 colon cancer cells; for viability at 24 h, 100 µM: HCT-116, 100 μM
Protocol: (§1) HCT-116 colon cancer cells (Procell, Wuhan, China) were cultured in McCoy’s 5A medium (Gibco; Thermo Fisher Scientific Inc., MA, USA), Hep-G2 hepatocellular carcinoma cells (Procell, Wuhan, China) in Eagle’s minimum essential medium (EMEM, Gibco; Thermo Fisher Scientific Inc., MA, USA), and HCC-1806 breast cancer cells (Manassas, VA, USA) in RPMI-1640 medium (Gibco; Thermo Fisher Scientific Inc., MA, USA). All the mediums were supplemented with 10% fetal bovine serum and 1% penicillin–streptomycin (Thermo Fisher Scientific Inc., MA, USA) and cultured at 37 °C in a humidified incubator with 5% CO2.
(§2) Cell viability was determined by a 3-(4,5-dimethylthiazol-2-yl)-2,5-diphenyltetrazolium bromide (MTT) colorimetric assay. Each cell strain (6000 cells/well) was plated in 96-well microtiter plates and allowed to attach for 24 h at 37 °C and 5% CO2. Compound I or 6-shogaol (in dimethyl sulfoxide, DMSO) was added to the cell culture medium to desired final concentrations of 10, 40, and 100 μM. Final DMSO concentrations for control and treatments were 0.1%. There were six replicates of each condition. After the cells were cultured for 24 h, the medium was removed, and the cells were treated with 5 mg/mL MTT in fresh media. After incubation for 4 h at 37 °C, the medium containing MTT was removed, 100 μL of DMSO was added to the wells, and the plates were shaken gently for 30 min at room temperature. Absorbance values were derived from the plate reading at 490 nm on microplate readers (BioTek, Agilent).

[3] = test system: HCT-116 colon cancer cells; assay: MTT cell viability assay, HCT-116; format: cell-based, human; conditions: HCT-116, 10 μM, 24 h
Protocol: as §1, §2

[4] = MTT cell viability assay, Hep-G2; format: cell-based; conditions: human, Hep-G2 hepatocellular carcinoma cells, Hep-G2, 100 μM
Protocol: as §1
as §2, with “After incubation for 4 h at 37 °C, the medium containing MTT was removed, 100 μL of DMSO was added to the wells, and the plates were shaken gently for 30 min at room temperature.” left out

[5] = MTT cell viability assay, HCC-1806; format: cell-based; conditions: human, HCC-1806 breast cancer cells, HCC-1806, 100 μM
Protocol: as §1
as §2, with “After incubation for 4 h at 37 °C, the medium containing MTT was removed, 100 μL of DMSO was added to the wells, and the plates were shaken gently for 30 min at room temperature.” left out

[6] = Stability evaluation of samples in rat plasma (UPLC–QQQ–MS/MS method validation); format: in vitro ADME; conditions: n=3; for Stability (Mean±SD), Postpreparative: rat plasma samples in autosampler for 8 h; for Stability (Mean±SD), Short Term / Stability (Mean±SD), Freeze and Thaw / Stability (Mean±SD), Long Term: rat plasma; for Stability (Mean±SD), Short Term: room temperature for 4 h; for Stability (Mean±SD), Freeze and Thaw: −20 °C for 24 h and thawed at room temperature, repeated three times; for Stability (Mean±SD), Long Term: −20 °C for 30 days
Protocol: The established UPLC–QQQ–MS/MS methods were validated according to the guidelines of the US Food and Drug Administration.[10] Linearity, limit of detection (LOD), lower limit of quantification (LLOQ), interday and intraday accuracy and precision, extraction recovery, and stability were measured. The calibration curve was replicated three times on the same day (intraday) and over 3 days (interday) to evaluate accuracy and precision. The correlation coefficient (r^2) of all calibration curves was at least 0.995, and the bias and coefficient of variation were kept within ±15%. Matrix effect and recovery evaluation: the matrix effect was given as the ratio of mean peak area for the post-extraction spiked samples (set 2, in plasma) to that of the standard solution samples (set 1, in MeOH). Recovery was quantified as the ratio of mean peak area of the pre-extraction spiked samples (set 3, standard with homogenate plasma) to that of the post-extraction spiked samples (set 2, in plasma). Stability: (1) freeze and thaw: samples were stored at −20 °C for 24 h and thawed at room temperature and repeated three times; (2) short term: samples were maintained at room temperature for 4 h; (3) long term: samples were kept at −20 °C for 30 days; (4) postpreparative: samples were maintained in an autosampler for 8 h. The stability of all the samples was limited to within ±15%, except for the LLOQ within ±20%.

[7] = Metabolite profiling in rat plasma, urine and feces by UPLC–QTOF–MS/MS; conditions: rats; for biological samples in which metabolite was detected, 6-Shogaol treated: 10 mg/kg oral 6-shogaol, feces/urine/plasma
Protocol: A total of 12 adult male Sprague–Dawley rats (220–240 g) were purchased from the Chinese University of Hong Kong. The animals were kept in standard living conditions (room temperature 22 ± 1 °C, 12 h light/dark normal cycle, and constant humidity) at the animal laboratory of the School of Chinese Medicine, Hong Kong Baptist University with free access to food and water. All experimental protocols were approved by the Environmental Health and Safety Committee of Hong Kong Baptist University, Hong Kong (03/2017), and the procedures were in accordance with the guidelines of the Animal Care Ethics Committee of Hong Kong Baptist University and the Department of Health, Hong Kong Special Administrative Region. Before the experiment, the rats were kept for one week to acclimate to the new environment. The rats were randomly divided into two groups (n = 6) and fasted with water freely available. On the day of the experiment, by intragastric administration, one group received compound I and the other group received 6-shogaol. Both compounds were dissolved in 2% Tween 80 with an administration volume of less than 0.5 mL at a dose of 10 mg/kg. Then, rats were housed singly during the blood collection period (a total of 72 h). For each sample, 300–500 μL blood was collected from the eye canthus of each rat into tubes containing 1.5 mL EDTA. Samples were drawn at 0.0, 0.08, 0.25, 0.50, 0.75, 1.0, 2.0, 4.0, 6.0, 12, 24, 36, 48, 60, and 72 h. The blood samples were centrifuged at 4000 rpm for 15 min at 4 °C to obtain plasma. Urine and feces were collected every 1–2 h throughout the experiments. The blood, urine, and feces were collected before the intragastric administration as a blank sample. The rats were sacrificed by cervical spondylolisthesis after the experiment.
For metabolite identification and relative quantification, homogeneous biospecimen samples were combined during periods from 0 h to the time when plasmatic concentrations reached a maximum value (Tmax) after intragastric administration. 50 μL of each plasma or urine sample was added to 1.2 mL of MeOH to precipitate proteins. […]

**Q.** For `CCCCCC(CC(=O)CCc1ccc(O)c(OC)c1)S(=O)(=O)O` (centres unmarked) [6-gingesulfonic acid], which AUC(0-inf) [1] is on record?
**A.** The AUC(0-inf) was 9.58 ± 2.07 µg·h/mL.

**Q.** What about the AUC(0-t) [1] of the same compound?
**A.** The AUC(0-t) was 8.71 ± 1.93 µg·h/mL.

**Q.** And the Cmax [1]?
**A.** The Cmax was 0.52 ± 0.138 µg/mL.

**Q.** What about the Tmax [1] of the same compound?
**A.** The Tmax was 5.33 ± 1.63 h.

**Q.** And the CL/F [1]?
**A.** The CL/F was 1.08 L/h/kg.

**Q.** What about the MRT [1] of the same compound?
**A.** The MRT was 30.4 ± 1.83 h.

**Q.** And the half-life [1]?
**A.** The half-life was 20.8 ± 5.23 h.

**Q.** What about the Vd/F [1] of the same compound?
**A.** Its Vd/F is 32.4 ± 9.94 L/kg.

**Q.** And the viability at 24 h, 100 µM [2]?
**A.** The viability at 24 h, 100 µM was 84.9%.

**Q.** What about the cell viability [3] of the same compound?
**A.** Its cell viability is “no significant change”.

**Q.** What about the viability at 24 h, 100 µM [4] of the same compound?
**A.** The viability at 24 h, 100 µM was 84.2%.

**Q.** And the viability at 24 h, 100 µM [5]?
**A.** Its viability at 24 h, 100 µM is 64.6%.

**Q.** And the “Stability (Mean±SD), Postpreparative” value [6]?
**A.** Its value is 98.19±5.06%.

**Q.** And the “Stability (Mean±SD), Short Term” value [6]?
**A.** The value was 99.26±1.58%.

**Q.** And the “Stability (Mean±SD), Freeze and Thaw” value [6]?
**A.** The value was 92.6±4.31%.

**Q.** What about the “Stability (Mean±SD), Long Term” value [6] of the same compound?
**A.** Its value is 92.26±4.28%.

**Q.** For `CCCCC/C=C/C(=O)CCc1ccc(O)c(OC)c1` [6-shogaol, reference compound], which AUC(0-inf) [1] is on record?
**A.** Its AUC(0-inf) is 0.121 ± 0.0363 µg·h/mL.

**Q.** What about the AUC(0-t) [1] of the same compound?
**A.** The AUC(0-t) was 0.0768 ± 0.0269 µg·h/mL.

**Q.** And the Cmax [1]?
**A.** Its Cmax is 0.155 ± 0.039 µg/mL.

**Q.** What about the Tmax [1] of the same compound?
**A.** Its Tmax is 0.14 ± 0.09 h.

**Q.** And the CL/F [1]?
**A.** Its CL/F is 88.5 L/h/kg.

**Q.** And the MRT [1]?
**A.** The MRT was 1.02 ± 0.82 h.

**Q.** What about the half-life [1] of the same compound?
**A.** The half-life was 0.64 ± 0.53 h.

**Q.** And the Vd/F [1]?
**A.** The Vd/F was 71.9 ± 33 L/kg.

**Q.** What about the viability at 24 h, 10 µM ([2]; HCT-116, 10 μM) of the same compound?
**A.** Its viability at 24 h, 10 µM is 58.6%.

**Q.** And the viability at 24 h, 100 µM [2]?
**A.** Its viability at 24 h, 100 µM is 4.17%.

**Q.** What about the viability at 24 h, 100 µM [4] of the same compound?
**A.** The viability at 24 h, 100 µM was 2.73%.

**Q.** And the viability at 24 h, 100 µM [5]?
**A.** Its viability at 24 h, 100 µM is 7.84%.

**Q.** And the “Stability (Mean±SD), Postpreparative” value [6]?
**A.** The value was 95.87±8.69%.

**Q.** And the “Stability (Mean±SD), Short Term” value [6]?
**A.** The value was 95.88±8.18%.

**Q.** And the “Stability (Mean±SD), Freeze and Thaw” value [6]?
**A.** Its value is 96.06±9.07%.

**Q.** And the “Stability (Mean±SD), Long Term” value [6]?
**A.** Its value is 101.23±12.95%.

**Q.** Which “biological samples in which metabolite was detected, 6-Shogaol treated” value [7] does the source give for `CCCCCC=CC(O)CCc1ccc(O)c(OC)c1` (centres unmarked) [M1, 1-(4′-hydroxy-3′-methoxyphenyl)-4-decen-3-ol] here?
**A.** The value was “FUP”.

**Q.** With `CCCCC/C=C/C(=O)CCc1ccc(OC2OC(C(=O)O)C(O)C(O)C2O)c(OC)c1` (stereo not drawn) [M3, s-6-shogaol-4′-O-β-glucuronide] as the compound, how does the “biological samples in which metabolite was detected, 6-Shogaol treated” value [7] read?
**A.** The value was “FUP”.

**Q.** Which “metabolite concentration in urine and feces samples of 6-gingesulfonic acid group versus 6-shogaol group” value ([7]; 10 mg/kg oral) does the source give for `CCCCCC(CC(=O)CCc1ccc(O)c(OC)c1)SCC(NC(=O)CCC(N)C(=O)O)C(=O)NCC(=O)O` (centres unmarked) [M4, 5-glutathionyl-6-shogaol] here?
**A.** The value was “lower concentrations”.
